# Assay results from US10696615B2, “Prenylated hydroxystilbenes” (The University of Sydney, priority 2011, dated 2020).
# Legend:
# [1] = test system: HL-60 (TB); test: NCI in vitro cancer screen, Leukemia; assay type: cell-based, human; settings: HL-60 (TB)
# [2] = test system: MOLT-4; test: NCI in vitro cancer screen, Leukemia; assay type: cell-based, human; settings: MOLT-4
# [3] = test system: RPMI-8226; test: NCI in vitro cancer screen, Leukemia; assay type: cell-based, human; settings: RPMI-8226
# [4] = test system: HOP-62; test: NCI in vitro cancer screen, Non-Small Cell Lung Cancer; assay type: cell-based, human; settings: HOP-62
# [5] = test system: HOP-92; test: as above; assay type: cell-based, human; settings: HOP-92
# [6] = test system: NCI-H23; test: as above; assay type: cell-based, human; settings: NCI-H23
# [7] = test system: NCI-H460; test: as above; assay type: cell-based, human; settings: NCI-H460
# [8] = test system: COLO 205; test: NCI in vitro cancer screen, Colon Cancer; assay type: cell-based, human; settings: COLO 205
# [9] = test system: HCT-15; test: NCI in vitro cancer screen, Colon Cancer; assay type: cell-based, human; settings: HCT-15
# [10] = test system: HT29; test: NCI in vitro cancer screen, Colon Cancer; assay type: cell-based, human; settings: HT29
# [11] = test system: KM12; test: NCI in vitro cancer screen, Colon Cancer; assay type: cell-based, human; settings: KM12
# [12] = test system: SF-268; test: NCI in vitro cancer screen, CNS Cancer; assay type: cell-based, human; settings: SF-268
# [13] = test system: SF-539; test: NCI in vitro cancer screen, CNS Cancer; assay type: cell-based; settings: SF-539
# [14] = test system: U251; test: NCI in vitro cancer screen, CNS Cancer; assay type: cell-based, human; settings: U251
# [15] = test system: LOX IMVI; test: NCI in vitro cancer screen, Melanoma; assay type: cell-based, human
# [16] = test system: MALME-3M; test: NCI in vitro cancer screen, Melanoma; assay type: cell-based, human
# [17] = test system: SK-MEL-2; test: NCI in vitro cancer screen, Melanoma; assay type: cell-based, human; settings: SK-MEL-2
# [18] = test system: UACC-62; test: NCI in vitro cancer screen, Melanoma; assay type: cell-based, human; settings: UACC-62
# [19] = test system: OVCAR-4; test: NCI in vitro cancer screen, Ovarian Cancer; assay type: cell-based, human; settings: OVCAR-4
# [20] = test system: OVCAR-5; test: NCI in vitro cancer screen, Ovarian Cancer; assay type: cell-based, human; settings: OVCAR-5
# [21] = test system: ADR-RES (NCI/ADR-RES); test: NCI in vitro cancer screen, Ovarian Cancer; assay type: cell-based, human
# [22] = test system: A498; test: NCI in vitro cancer screen, Renal Cancer; assay type: cell-based, human; settings: A498
# [23] = test system: CAKI-1; test: NCI in vitro cancer screen, Renal Cancer; assay type: cell-based, human; settings: CAKI-1
# [24] = test system: SN12C; test: NCI in vitro cancer screen, Renal Cancer; assay type: cell-based, human
# [25] = test system: TK-10; test: NCI in vitro cancer screen, Renal Cancer; assay type: cell-based, human; settings: TK-10
# [26] = test system: UO-31; test: NCI in vitro cancer screen, Renal Cancer; assay type: cell-based, human; settings: UO-31
# [27] = test system: PC-3; test: NCI in vitro cancer screen, Prostate Cancer; assay type: cell-based, human; settings: PC-3
# [28] = test system: T-47D; test: NCI in vitro cancer screen, Breast Cancer; assay type: cell-based, human
# [29] = Homo sapiens, read-out: LC50 (the source's name)
smiles,measurement,setting,value
"CC(C)=CCc1c(O)cc(/C=C/c2ccc(O)cc2)c(CC=C(C)C)c1O [USYDS6, (E)-2,4-di(3-methyl-2-buten-1-yl)-3,4′,5-trihydroxystilbene]",TGI,[1],4.83 µM
same,GI50,[1]; Homo sapiens,2.07 µM
same,CC50,[1]; [29],15.4 µM
same,GI50,[2]; Homo sapiens,1.59 µM
same,CC50,[2]; [29],16.8 µM
same,TGI,[2],4.27 µM
same,GI50,[3]; Homo sapiens,2.34 µM
same,CC50,[3]; [29],62 µM
same,TGI,[3],5.61 µM
same,TGI,[4],17.5 µM
same,GI50,[4]; Homo sapiens,5.11 µM
same,CC50,[4]; [29],44 µM
same,TGI,[5],4.67 µM
same,GI50,[5]; Homo sapiens,1.86 µM
same,CC50,[5]; [29],14.5 µM
same,GI50,[6]; Homo sapiens,3.38 µM
same,TGI,[6],15.7 µM
same,GI50,[7]; Homo sapiens,1.89 µM
same,CC50,[7]; [29],8.06 µM
same,TGI,[7],3.90 µM
same,TGI,[8],30.2 µM
same,GI50,[8]; Homo sapiens,16 µM
same,CC50,[8]; [29],57.2 µM
same,TGI,[9],6.26 µM
same,GI50,[9]; Homo sapiens,2.13 µM
same,CC50,[9]; [29],48.2 µM
same,TGI,[10],17.6 µM
same,GI50,"[10]; Homo sapiens, HT-29",5.44 µM
same,CC50,"[10]; Homo sapiens, HT-29, read-out: LC50 (the source's name)",48.3 µM
same,GI50,[11]; Homo sapiens,2.21 µM
same,CC50,[11]; [29],8.64 µM
same,TGI,[11],4.37 µM
same,GI50,[12]; Homo sapiens,2.78 µM
same,CC50,[12]; [29],44.3 µM
same,TGI,[12],8.97 µM
same,GI50,[13]; Homo sapiens,4.48 µM
same,CC50,[13]; [29],57.1 µM
same,TGI,[13],17.6 µM
same,GI50,"[14]; Homo sapiens, U-251",2.33 µM
same,CC50,"[14]; Homo sapiens, U-251, read-out: LC50 (the source's name)",16.7 µM
same,TGI,[14],5.31 µM
same,TGI,[15],3.42 µM
same,GI50,[15]; Homo sapiens,1.76 µM
same,CC50,[15]; [29],6.68 µM
same,GI50,"[16]; Homo sapiens, Malme-3M",2.8 µM
same,CC50,"[16]; Homo sapiens, Malme-3M, read-out: LC50 (the source's name)",37.1 µM
same,TGI,[16]; MALME-3M,8.56 µM
same,GI50,[17]; Homo sapiens,13.1 µM
same,TGI,[17],33.6 µM
same,GI50,[18]; Homo sapiens,10.3 µM
same,CC50,[18]; [29],53.8 µM
same,TGI,[18],23.5 µM
same,GI50,[19]; Homo sapiens,4.4 µM
same,CC50,[19]; [29],43.5 µM
same,TGI,[19],16.1 µM
same,GI50,[20]; Homo sapiens,5.86 µM
same,CC50,[20]; [29],53.3 µM
same,TGI,[20],20.0 µM
same,TGI,[21]; ADR-RES,15.2 µM
same,GI50,"[21]; Homo sapiens, NCI/ADR-RES",3.46 µM
same,CC50,"[21]; Homo sapiens, NCI/ADR-RES, read-out: LC50 (the source's name)",51.2 µM
same,TGI,[22],25.0 µM
same,GI50,[22]; Homo sapiens,11.7 µM
same,CC50,[22]; [29],53.1 µM
same,TGI,[23],22.6 µM
same,GI50,[23]; Homo sapiens,8.37 µM
same,CC50,[23]; [29],55.7 µM
same,TGI,[24],7.98 µM
same,GI50,[24]; Homo sapiens,2.85 µM
same,CC50,[24]; [29],30.8 µM
same,GI50,[25]; Homo sapiens,3.36 µM
same,TGI,[25],9.33 µM
same,GI50,[26]; Homo sapiens,2.51 µM
same,CC50,[26]; [29],33.5 µM
same,TGI,[26],7.50 µM
same,GI50,[27]; Homo sapiens,1.8 µM
same,CC50,[27]; [29],8.44 µM
same,TGI,[27],3.89 µM
same,TGI,[28],20.3 µM
same,GI50,"[28]; Homo sapiens, T47D",5.03 µM
same,CC50,"[28]; Homo sapiens, T47D, read-out: LC50 (the source's name)",57.9 µM
